Source: US20250255304A1, “HIGHLY TRA[…] CONTROLLING COMPOSITION” (ZM Crop Protection Corporation, priority 2022, published 2025)

Assays:
Assay type in all cases: in vivo
[1] = test system: Coptotermes formosanus Shiraki; assay: Test Example 1: effect of agent on gypsum treated with test agent solution; conditions: dicloromezotiaz 0.023%, imidacloprid 0.1%, fipronil 0.03% test agent solution on gypsum
Procedure: A test agent solution containing 0.023 parts of dicloromezotiaz was prepared by adding 99.875 parts of water to 0.125 parts of the aqueous suspension composition shown in Formulation Example 1.
In a comparative example, an aqueous suspension composition prepared by adding an agent solution, wherein 99 parts of water was added to 1 part of a flowable containing 10.0 parts of imidacloprid and which contained 0.1 parts of imidacloprid and a drug solution, wherein 299 parts of water was added to 1 part of a flowable containing 9.1 parts of fipronil and which contained 0.03 parts of fipronil, uniformly mixing same was used as a test agent solution of a comparative example.
As the imidacloprid formulation and the fipronil formulation, commercially available termite controlling agents were used and diluted solutions at practical agent concentrations thereof were used as test agent solutions.
Gypsum was cured and spread in a glass petri dish having a diameter of 90 mm, 15 ml of each of the test agent solution of the example and the test agent solution of the comparative example was uniformly dropped on the entire surface of the gypsum. Thereafter, ten workers of Coptotermes formosanus Shiraki were released into the petri dish and the petri dish was covered and left to stand in a thermostatic chamber (25° C./relative humidity 60%).
The number of abnormal termites and the number of dead termites among the released termites (Coptotermes formosanus Shiraki) were observed every one hour from immediately after the release of the termites (Coptotermes formosanus Shiraki) until ten hours passed and the total number of the abnormal termite rate and the dead termite rate was calculated as the abnormal or dead termite rate (%) according to [Expression 1] below and the rates of expression of the effects of the respective agents were compared. Each test agent was prepared in one petri dish as one plot and the test was carried out in two replicates.

[2] = test system: Coptotermes formosanus Shiraki; assay: Test Example 3: extirpation test with dust formulation using simulated termite trails; conditions: active ingredient concentration 0.5%
[3] = test system: Coptotermes formosanus Shiraki; assay: Test Example 2: primary transmission treatment effect; conditions: Table 3, dicloromezotiaz 0.023%, fipronil 0.03%, imidacloprid 0.10%, chlorantraniliprole 0.05% solution in soil
Procedure: (§1) A test agent solution containing 0.023 parts of dicloromezotiaz was prepared by adding 99.875 parts of water to 0.125 parts of the aqueous suspension composition shown in Formulation Example 1. As comparative examples, four types of commercially available neonicotinoid termite controlling agents and four types of slow-acting termite controlling agents shown in Table 2 were diluted with water at practical concentrations to prepare test agent solutions. The “agent concentration (%)” indicates the concentration of the active ingredient contained in each of the composition of the present invention and the termite controlling agents and the “test agent solution concentration (%)” indicates the concentration of the active ingredient in each of the prepared test agent solutions.
(§2) After 1.2 g of each of the test agent solutions of the example and the comparative examples diluted to a predetermined concentration and prepared was added to 4.8 g of soil, 6 g of the mixed soil was spread in a glass petri dish having a diameter of 50 mm and ten workers of Coptotermes formosanus Shiraki were released into the petri dish and exposed to the agent solution for 4 hours.

[4] = test system: Coptotermes formosanus Shiraki; assay: Test Example 2: secondary transmission treatment effect; conditions: Table 5, dicloromezotiaz 0.023%, fipronil 0.03%, imidacloprid 0.10%, chlorantraniliprole 0.05% solution in soil
Procedure: as §1, §2

N#Cc1nn(-c2c(Cl)cc(C(F)(F)F)cc2Cl)c(N)c1[S+]([O-])C(F)(F)F (stereo not shown) [Fipronil]
Abnormal or dead termite rate (%) ([1]; time elapsed 1 h): 18% | Abnormal or dead termite rate (%) ([1]; time elapsed 2 h): 36% | Abnormal or dead termite rate (%) ([1]; time elapsed 3 h): 52% | Abnormal or dead termite rate (%) ([1]; time elapsed 4 h): 100% | Abnormal or dead termite rate (%) ([1]; time elapsed 5 h): 100% | Abnormal or dead termite rate (%) ([1]; time elapsed 6 h): 100% | Abnormal or dead termite rate (%) ([1]; time elapsed 7 h): 100% | Abnormal or dead termite rate (%) ([1]; time elapsed 8 h): 100% | Abnormal or dead termite rate (%) ([1]; time elapsed 9 h): 100% | Abnormal or dead termite rate (%) ([1]; time elapsed 10 h): 100% | Abnormal or dead termite rate (%) ([2]; 1 h): 0% | Abnormal or dead termite rate (%) ([2]; 2 h): 5% | Abnormal or dead termite rate (%) ([2]; 3 h): 50% | Abnormal or dead termite rate (%) ([2]; 4 h): 95% | Abnormal or dead termite rate (%) ([2]; 5 h): 95% | Abnormal or dead termite rate (%) ([2]; 6 h): 100% | Abnormal or dead termite rate (%) ([2]; 7 h): 100% | Abnormal or dead termite rate (%) ([2]; 1 day): 100% | Abnormal or dead termite rate (%) ([2]; 2 days): 100% | Abnormal or dead termite rate (%) ([2]; 3 days): 100% | Abnormal or dead termite rate (%) ([2]; 7 days): 100% | Abnormal or dead termite rate (%) ([3]; after 1 day): 82% | Abnormal or dead termite rate (%) ([3]; after 3 days): 95% | Abnormal or dead termite rate (%) ([3]; after 7 days): 100% | Abnormal or dead termite rate (%) ([3]; after 14 days): 100% | Abnormal or dead termite rate (%) ([3]; after 21 days): 100% | Abnormal or dead termite rate (%) ([4]; after 1 day): 0% | Abnormal or dead termite rate (%) ([4]; after 3 days): 0% | Abnormal or dead termite rate (%) ([4]; after 7 days): 19% | Abnormal or dead termite rate (%) ([4]; after 14 days): 30% | Abnormal or dead termite rate (%) ([4]; after 21 days): 31%
